# ChEMBL document CHEMBL3044631, “Synthesis of 2-[4,5-dimethyl-1-(phenylamino)-1H-imidazol-2-ylthio]-N-(thiazole-2-yl)acetamide derivatives and their anticancer activities” (2013)
# Experiments:
# Format in all cases: functional
# [1] = system: EKVX; assay: Anticancer activity against Homo sapiens (human) EKVX cells after 48 hr by SRB assay
# [2] = system: NCI/ADR-RES; assay: Anticancer activity against Homo sapiens (human) NCI/ADR-RES cells after 48 hr by SRB assay
# [3] = system: U-251; assay: Anticancer activity against Homo sapiens (human) U251 cells after 48 hr by SRB assay; conditions: U-251, 48 h
# [4] = system: UO-31; assay: Anticancer activity against Homo sapiens (human) UO31 cells after 48 hr by SRB assay; conditions: UO-31, 48 h
# [5] = system: HCT-15; assay: Anticancer activity against Homo sapiens (human) HCT15 cells after 48 hr by SRB assay; conditions: HCT-15, 48 h
# [6] = system: SK-MEL-2; assay: Anticancer activity against Homo sapiens (human) SK-MEL-2 cells after 48 hr by SRB assay; conditions: SK-MEL-2, 48 h
# [7] = system: HL-60(TB); assay: Anticancer activity against Homo sapiens (human) HL-60(TB) cells after 48 hr by SRB assay; conditions: HL-60, 48 h
# [8] = system: SF-295; assay: Anticancer activity against Homo sapiens (human) SF295 cells after 48 hr by SRB assay; conditions: SF-295, 48 h
# [9] = system: SW-620; assay: Anticancer activity against Homo sapiens (human) SW620 cells after 48 hr by SRB assay; conditions: SW-620, 48 h
# [10] = system: SF-268; assay: Anticancer activity against Homo sapiens (human) SF268 cells after 48 hr by SRB assay; conditions: SF-268, 48 h
# [11] = system: COLO 205; assay: Anticancer activity against Homo sapiens (human) COLO205 cells after 48 hr by SRB assay; conditions: COLO 205, 48 h
# [12] = system: HT-29; assay: Anticancer activity against Homo sapiens (human) HT-29 cells after 48 hr by SRB assay; conditions: HT-29, 48 h
# [13] = system: Malme-3M; assay: Anticancer activity against Homo sapiens (human) MALME-3M cells after 48 hr by SRB assay
# [14] = system: NCI-H322M; assay: Anticancer activity against Homo sapiens (human) NCI-H322M cells after 48 hr by SRB assay
# [15] = system: T47D; assay: Anticancer activity against Homo sapiens (human) T47D cells after 48 hr by SRB assay
# [16] = system: SF-539; assay: Anticancer activity against Homo sapiens (human) SF539 cells after 48 hr by SRB assay; conditions: SF-539, 48 h
# [17] = system: NCI-H460; assay: Anticancer activity against Homo sapiens (human) NCI-H460 cells after 48 hr by SRB assay; conditions: NCI-H460, 48 h
# [18] = system: Hs-578T; assay: Anticancer activity against Homo sapiens (human) Hs 578T cells after 48 hr by SRB assay
# [19] = system: OVCAR-4; assay: Anticancer activity against Homo sapiens (human) OVCAR4 cells after 48 hr by SRB assay; conditions: OVCAR-4, 48 h
# [20] = system: SK-MEL-5; assay: Anticancer activity against Homo sapiens (human) SK-MEL-5 cells after 48 hr by SRB assay; conditions: SK-MEL-5, 48 h
# [21] = system: SNB-75; assay: Anticancer activity against Homo sapiens (human) SNB75 cells after 48 hr by SRB assay; conditions: SNB-75, 48 h
# [22] = system: A549; assay: Anticancer activity against Homo sapiens (human) A549/ATCC cells after 48 hr by SRB assay; conditions: A549, 48 h
# [23] = system: OVCAR-8; assay: Anticancer activity against Homo sapiens (human) OVCAR8 cells after 48 hr by SRB assay; conditions: OVCAR-8, 48 h
# [24] = system: OVCAR-3; assay: Anticancer activity against Homo sapiens (human) OVCAR3 cells after 48 hr by SRB assay; conditions: OVCAR-3, 48 h
# [25] = system: NCI-H23; assay: Anticancer activity against Homo sapiens (human) NCI-H23 cells after 48 hr by SRB assay; conditions: NCI-H23, 48 h
# [26] = system: SN12C; assay: Anticancer activity against Homo sapiens (human) SN12C cells after 48 hr by SRB assay
# [27] = system: MOLT-4; assay: Anticancer activity against Homo sapiens (human) MOLT4 cells after 48 hr by SRB assay; conditions: MOLT-4, 48 h
# [28] = system: K562; assay: Anticancer activity against Homo sapiens (human) K562 cells after 48 hr by SRB assay; conditions: K562, 48 h
# [29] = system: DU-145; assay: Anticancer activity against Homo sapiens (human) DU145 cells after 48 hr by SRB assay; conditions: DU-145, 48 h
# [30] = system: MDA-MB-468; assay: Anticancer activity against Homo sapiens (human) MDA-MB-468 cells after 48 hr by SRB assay; conditions: MDA-MB-468, 48 h
# [31] = read-out: LC50 (the source's name)
compound,measurement,setting,value
Cc1nc(SCC(=O)Nc2nc(-c3ccc(Cl)cc3)cs2)n(Nc2ccccc2)c1C,GI50,[1],1.84 µM
same,TGI,[1],12.2 µM
same,CC50,[1]; [31],94.1 µM
same,GI50,[2],2.6 µM
same,LC50,[2],69.9 µM
same,TGI,[2],7.18 µM
same,GI50,[3],3.13 µM
same,"LC50 (lethal concentration, 50% net cell kill)",[3],41.4 µM
same,TGI,[3],13 µM
same,GI50,[4],3.59 µM
same,TGI,[4],37.7 µM
same,CC50,[4]; [31],> 100 µM
same,GI50,[5],5.74 µM
same,TGI,[5],23.3 µM
same,CC50,[5]; [31],76.9 µM
same,GI50,[6],10.1 µM
same,LC50 (concentration killing 50% of cells),[6],75.5 µM
same,TGI,[6],27.6 µM
same,GI50,[7],2.99 µM
same,TGI,[7],> 100 µM
same,CC50,[7]; [31],> 100 µM
same,GI50,[8],2.29 µM
same,LC50,[8],> 100 µM
same,TGI,[8],16.5 µM
same,GI50,[9],5.5 µM
same,LC50 (concentration killing 50% of cells),[9],74.6 µM
same,TGI,[9],22.9 µM
same,GI50,[10],4.8 µM
same,LC50,[10],58.8 µM
same,TGI,[10],20.1 µM
same,GI50,[11],4.13 µM
same,TGI,[11],14.5 µM
same,CC50,[11]; [31],49.8 µM
same,GI50,[12],3.78 µM
same,LC50,[12],49.5 µM
same,TGI,[12],15.4 µM
same,GI50,[13],10.8 µM
same,TGI,[13],37.6 µM
same,CC50,[13]; [31],> 100 µM
same,GI50,[14],4.17 µM
same,TGI,[14],22.9 µM
same,CC50,[14]; [31],> 100 µM
same,GI50,[15],1.4 µM
same,TGI,[15],5.24 µM
same,CC50,[15]; [31],34.6 µM
same,GI50,[16],1.9 µM
same,LC50 (concentration killing 50% of cells),[16],9.64 µM
same,TGI,[16],4.27 µM
same,GI50,[17],2.89 µM
same,LC50,[17],82.1 µM
same,TGI,[17],11 µM
same,GI50,[18],3.42 µM
same,TGI,[18],21.6 µM
same,CC50,[18]; [31],> 100 µM
same,GI50,[19],4.6 µM
same,LC50 (concentration killing 50% of starting cells),[19],> 100 µM
same,TGI,[19],22.1 µM
same,GI50,[20],2.24 µM
same,LC50 (concentration killing 50% of cells),[20],25.8 µM
same,TGI,[20],6.31 µM
same,GI50,[21],3.48 µM
same,LC50,[21],49.3 µM
same,TGI,[21],16.2 µM
same,GI50,[22],2.9 µM
same,LC50,[22],40.1 µM
same,TGI,[22],11.6 µM
same,GI50,[23],2.71 µM
same,TGI,[23],7.73 µM
same,CC50,[23]; [31],38.9 µM
same,GI50,[24],3 µM
same,LC50 (50% lethal concentration),[24],36.2 µM
same,TGI,[24],12.1 µM
same,GI50,[25],1.85 µM
same,TGI,[25],6.02 µM
same,CC50,[25]; [31],26.3 µM
same,GI50,[26],2.38 µM
same,LC50 (concentration killing 50% of cells),[26],35.8 µM
same,TGI,[26],10.1 µM
same,GI50,[27],2.51 µM
same,LC50 (50% lethal concentration),[27],> 100 µM
same,TGI,[27],9.94 µM
same,GI50,[28],0.12 µM
same,TGI,[28],> 100 µM
same,CC50,[28]; [31],> 100 µM
same,GI50,[29],5.64 µM
same,LC50 (concentration killing 50% of cells),[29],45.4 µM
same,TGI,[29],18.7 µM
same,GI50,[30],1.45 µM
same,LC50,[30],40.4 µM
same,TGI,[30],6.27 µM
